Test results from ChEMBL document CHEMBL3621157, “Design, synthesis and biological evaluation of novel 1,2,4-triazolo and 1,2,4-triazino[4,3-a]quinoxalines as potential anticancer and antimicrobial agents” (2015).
Converted amounts (≈) assume the structure as drawn.

Assays:
Format in all cases: functional
[1] = Growth inhibition of human EKVX cells at 10 uM incubated for 48 hrs by sulforhodamine B assay; conditions: read-out: GI
[2] = test system: HCT-15; assay: Growth inhibition of human HCT15 cells incubated for 48 hrs by sulforhodamine B assay; conditions: HCT-15, 48 h
[3] = test system: UO-31; assay: Growth inhibition of human UO31 cells incubated for 48 hrs by sulforhodamine B assay; conditions: UO-31, 48 h
[4] = test system: CAKI-1; assay: Growth inhibition of human CAKI-1 cells incubated for 48 hrs by sulforhodamine B assay; conditions: CAKI-1, 48 h
[5] = test system: K562; assay: Growth inhibition of human K562 cells incubated for 48 hrs by sulforhodamine B assay; conditions: K562, 48 h
[6] = Growth inhibition of human BT549 cells incubated for 48 hrs by sulforhodamine B assay; conditions: BT-549, 48 h
[7] = test system: HT-29; assay: Growth inhibition of human HT-29 cells incubated for 48 hrs by sulforhodamine B assay; conditions: HT-29, 48 h
[8] = test system: U-251; assay: Growth inhibition of human U251 cells at 10 uM incubated for 48 hrs by sulforhodamine B assay; conditions: U-251, 48 h, read-out: GI
[9] = test system: Candida albicans; assay: Antimicrobial activity against Candida albicans DSM 70014 incubated for 48 hrs followed by transfer of colonies to Muller-Hinton agar plate and measured after 18 hrs by two-fold serial broth dilution method
[10] = Growth inhibition of human HOP92 cells incubated for 48 hrs by sulforhodamine B assay; conditions: HOP-92, 48 h
[11] = Growth inhibition of human RXF393 cells incubated for 48 hrs by sulforhodamine B assay; conditions: RXF 393, 48 h
[12] = test system: SK-MEL-2; assay: Growth inhibition of human SK-MEL-2 cells incubated for 48 hrs by sulforhodamine B assay; conditions: SK-MEL-2, 48 h
[13] = test system: U-251; assay: Growth inhibition of human U251 cells incubated for 48 hrs by sulforhodamine B assay; conditions: U-251, 48 h
[14] = test system: T47D; assay: Growth inhibition of human T47D cells incubated for 48 hrs by sulforhodamine B assay
[15] = test system: SW-620; assay: Growth inhibition of human SW620 cells incubated for 48 hrs by sulforhodamine B assay; conditions: SW-620, 48 h
[16] = test system: Bacillus subtilis; assay: Antimicrobial activity against Bacillus subtilis ATCC 6633 incubated at 37 degC for 24 hrs by cup diffusion method
[17] = Growth inhibition of human LOXIMVI cells at 10 uM incubated for 48 hrs by sulforhodamine B assay; conditions: LOX IMVI, read-out: GI
[18] = test system: PC-3; assay: Growth inhibition of human PC3 cells incubated for 48 hrs by sulforhodamine B assay; conditions: PC-3, 48 h
[19] = test system: IGROV-1; assay: Growth inhibition of human IGROV1 cells incubated for 48 hrs by sulforhodamine B assay; conditions: IGROV-1, 48 h
[20] = test system: SF-268; assay: Growth inhibition of human SF268 cells at 10 uM incubated for 48 hrs by sulforhodamine B assay; conditions: SF-268, 48 h, read-out: GI
[21] = test system: DU-145; assay: Growth inhibition of human DU145 cells incubated for 48 hrs by sulforhodamine B assay; conditions: DU-145, 48 h
[22] = test system: UACC-257; assay: Growth inhibition of human UACC257 cells incubated for 48 hrs by sulforhodamine B assay; conditions: UACC-257, 48 h
[23] = Growth inhibition of human LOXIMVI cells incubated for 48 hrs by sulforhodamine B assay; conditions: LOX IMVI
[24] = test system: NCI-H460; assay: Growth inhibition of human NCI-H460 cells incubated for 48 hrs by sulforhodamine B assay; conditions: NCI-H460, 48 h
[25] = test system: 786-0; assay: Growth inhibition of human 786-0 cells incubated for 48 hrs by sulforhodamine B assay; conditions: 786-0, 48 h
[26] = test system: NCI-H522; assay: Growth inhibition of human NCI-H522 cells incubated for 48 hrs by sulforhodamine B assay; conditions: NCI-H522, 48 h
[27] = test system: Candida albicans; assay: Antimicrobial activity against Candida albicans DSM 70014 incubated for 48 hrs by two-fold serial broth dilution method; conditions: DSM 70014, 48 h
[28] = test system: MDA-MB-231; assay: Growth inhibition of human MDA-MB-231 cells incubated for 48 hrs by sulforhodamine B assay; conditions: MDA-MB-231, 48 h
[29] = test system: PC-3; assay: Growth inhibition of human PC3 cells at 10 uM incubated for 48 hrs by sulforhodamine B assay; conditions: PC-3, 48 h, read-out: GI
[30] = Growth inhibition of human SF539 cells incubated for 48 hrs by sulforhodamine B assay; conditions: SF-539, 48 h
[31] = test system: CCRF-CEM; assay: Growth inhibition of human CCRF-CEM cells incubated for 48 hrs by sulforhodamine B assay
[32] = Growth inhibition of human MOLT4 cells incubated for 48 hrs by sulforhodamine B assay; conditions: MOLT-4, 48 h
[33] = test system: Escherichia coli; assay: Antimicrobial activity against Escherichia coli ATCC 11775 incubated for 24 hrs by two-fold serial broth dilution method; conditions: ATCC 11775, 24 h
[34] = Growth inhibition of human RPMI8226 cells incubated for 48 hrs by sulforhodamine B assay; conditions: RPMI-8226, 48 h
[35] = Growth inhibition of human Hs 578T cells incubated for 48 hrs by sulforhodamine B assay
[36] = test system: Staphylococcus aureus; assay: Antimicrobial activity against Staphylococcus aureus DSM 1104 incubated for 24 hrs followed by transfer of colonies to Muller-Hinton agar plate and measured after 18 hrs by two-fold serial broth dilution method
[37] = test system: Pseudomonas aeruginosa; assay: Antimicrobial activity against Pseudomonas aeruginosa ATCC 10145 incubated for 24 hrs followed by transfer of colonies to Muller-Hinton agar plate and measured after 18 hrs by two-fold serial broth dilution method
[38] = Growth inhibition of human COLO205 cells incubated for 48 hrs by sulforhodamine B assay; conditions: COLO 205, 48 h
[39] = test system: SK-OV-3; assay: Growth inhibition of human SKOV3 cells incubated for 48 hrs by sulforhodamine B assay; conditions: SK-OV-3, 48 h
[40] = test system: Escherichia coli; assay: Antimicrobial activity against Escherichia coli ATCC 11775 incubated at 37 degC for 24 hrs by cup diffusion method
[41] = test system: HL-60(TB); assay: Growth inhibition of human HL-60(TB) cells at 10 uM incubated for 48 hrs by sulforhodamine B assay; conditions: HL-60, 48 h, read-out: GI
[42] = test system: OVCAR-8; assay: Growth inhibition of human OVCAR8 cells incubated for 48 hrs by sulforhodamine B assay; conditions: OVCAR-8, 48 h
[43] = test system: SR; assay: Growth inhibition of human SR cells at 10 uM incubated for 48 hrs by sulforhodamine B assay; conditions: read-out: GI
[44] = test system: MCF7; assay: Growth inhibition of human MCF7 cells incubated for 48 hrs by sulforhodamine B assay; conditions: MCF7, 48 h
[45] = test system: MDA-MB-468; assay: Growth inhibition of human MDA-MB-468 cells incubated for 48 hrs by sulforhodamine B assay; conditions: MDA-MB-468, 48 h
[46] = test system: SNB-75; assay: Growth inhibition of human SNB75 cells incubated for 48 hrs by sulforhodamine B assay; conditions: SNB-75, 48 h

Question: With `Clc1ccccc1-c1nnc2c(Cc3ccccc3)nc3ccccc3n12` as the compound, how does the inhibition of growth at 10 µM [1] read?
Answer: 48.1%

Question: What about the GI50 [2] of the same compound?
Answer: 1.96 µM

Question: What about the GI50 [3] of the same compound?
Answer: 25 µM

Question: What about the GI50 [4] of the same compound?
Answer: 9.71 µM

Question: And the GI50 [5]?
Answer: 5.55 µM

Question: And the GI50 [6]?
Answer: 6.72 µM

Question: What about the GI50 [7] of the same compound?
Answer: 9.15 µM

Question: And the inhibition of growth at 10 µM [8]?
Answer: 57.2%

Question: And the MFC [9]?
Answer: 200 µg/mL (≈ 539 µM)

Question: And the GI50 [10]?
Answer: 3.45 µM

Question: And the GI50 [11]?
Answer: 8.45 µM

Question: And the GI50 [12]?
Answer: 55.8 µM

Question: What about the GI50 [13] of the same compound?
Answer: 5.18 µM

Question: And the GI50 [14]?
Answer: 6.82 µM

Question: What about the GI50 [15] of the same compound?
Answer: 43.4 µM

Question: And the “inhibition zone (IZ)” value [16]?
Answer: 12 mm

Question: And the inhibition of growth at 10 µM [17]?
Answer: 60.6%

Question: And the GI50 [18]?
Answer: 5.19 µM

Question: What about the GI50 [19] of the same compound?
Answer: 27.7 µM

Question: And the inhibition of growth at 10 µM [20]?
Answer: 47.5%

Question: And the GI50 [21]?
Answer: 44.2 µM

Question: What about the GI50 [22] of the same compound?
Answer: 34.3 µM

Question: And the GI50 [23]?
Answer: 3.69 µM

Question: What about the GI50 [24] of the same compound?
Answer: 3.49 µM

Question: And the GI50 [25]?
Answer: 10.4 µM

Question: And the GI50 [26]?
Answer: 53.9 µM

Question: And the MIC [27]?
Answer: 100 µg/mL (≈ 270 µM)

Question: And the GI50 [28]?
Answer: 6.24 µM

Question: And the inhibition of growth at 10 µM [29]?
Answer: 60.9%

Question: What about the GI50 [30] of the same compound?
Answer: 24.2 µM

Question: And the GI50 [31]?
Answer: 7.11 µM

Question: What about the GI50 [32] of the same compound?
Answer: 9.04 µM

Question: And the MIC [33]?
Answer: 25 µg/mL (≈ 67.4 µM)

Question: What about the GI50 [34] of the same compound?
Answer: 5.64 µM

Question: And the GI50 [35]?
Answer: 9.66 µM

Question: And the MBC [36]?
Answer: 200 µg/mL (≈ 539 µM)

Question: And the MBC [37]?
Answer: 100 µg/mL (≈ 270 µM)

Question: What about the GI50 [38] of the same compound?
Answer: 8.77 µM

Question: And the GI50 [39]?
Answer: 23.9 µM

Question: And the “inhibition zone (IZ)” value [40]?
Answer: 10 mm

Question: And the inhibition of growth at 10 µM [41]?
Answer: 46.4%

Question: What about the GI50 [42] of the same compound?
Answer: 7.21 µM

Question: And the inhibition of growth at 10 µM [43]?
Answer: 84.9%

Question: What about the GI50 [44] of the same compound?
Answer: 22.2 µM

Question: And the GI50 [45]?
Answer: 5.55 µM

Question: And the GI50 [46]?
Answer: 6.12 µM
